# Results taken from patent publication US20020006436A1, “USE OF A LIQUID CRYSTALLINE PHASE FOR DETERMINING THE DISTRIBUTION OF A CHEMICAL SUBSTANCE BETWEEN A HYDROPHOBIC AND A HYDROPHILIC ENVIRONMENT” (priority 1996, published 2002).
# Like-named read-outs stand apart in the source and are kept apart here.
# How the values were obtained:
# [1] = for [X]w: 72 h; for Kbl/w: equation 2, 72 h
# Source text: wherein [X]lipid/[X]water is the concentration of a substance X in the lipid and the water portion of the system, respectively. In order to be able to determine Kbl/w several methods can be applied. If vlipid is the lipid volume, v1 is the volume of water solution without the substance X, and v2 is the volume of water solution with the substance X in a concentration of [X]0 mol/liter, the distribution coefficient can be expressed as
# Kbl/w ={v2([X]0−[X]w)/[X]w−v1}/vlipid (2),
# in which [X]w is the concentration of X in the water phase at equilibrium. Equation 2 can be used if only the water phase and not the lipid phase is analyzed with reference to its content of X.
# Glyceryl monooleate, 2 ml, was weighed into three vials, 6 ml of a water solution with 0.033, 0.067, or 0.10 mol NaCl per liter then being added to one of the three vials.
# After 72 h the NaCl contents in the three vials were determined by means of conductometrical analysis of the water phases. In this example the constants were vlipid=2 ml, v1=0 ml, and v2=6 ml. The distribution coefficient Kbl/w was calculated by means of equation 2.
# [2] = Distribution of clomethiazole between glyceryl monooleate cubic phase bilayer and water phase (water or citrate buffer); format: physicochemical; details: 120 h; for Kbl/w, eq. (4) / kbl/w, eq. (4): fw=0.4
# Method: The distribution of a substance X between lipids and water in the system is depicted by the following distribution coefficient.
# Kbilayer/water=Kbl/w=[X]lipid/[X]water (1),
# If both the water phase and the cubic phase are analyzed with reference to their content of the substance X the following distribution coefficient can be determined Kcubic phase/water=KQ/w=[X]Q/[X]w (3), in which [X]Q is the concentration of X in the cubic phase. A relationship between Kbl/w and KQ/w can be derived if the volumetric portion of water in the cubic phase as well as the concentration of X in the water domain of the cubic phase are known. The former can be determined by means of X-ray diffraction. If it is assumed that the concentration of X in the water domain in the cubic phase is [X]w, i.e. the same as in the water phase, the following relationship can be obtained […]
# Kbl/w={KQ/w−fw}/{1−fw} (4) in which fw is a volumetric portion of water in the cubic phase.
# Clomethiazole (CMZ) is a drug which at a low pH exists in a charged state and at a high pH in a neutral stage. Glyceryl monooleate (Grindsted/Danisco A/S, Brabrand, Denmark), 0.74 ml, was added to each of six vials. Then 0.3 ml water was added to three of the vials, and 0.3 ml citrate buffer, pH 3.4, was added to the remaining three vials. The cubic phase was allowed to be formed overnight. Then 1.0 ml of solutions with different concentrations of CMZ were added to each of the vials.
# The contents were analyzed after 120 h with reference to CMZ in the water phase as well as the cubic phase. In this example the constants were vlipid=0.74 ml, v1=0.3 ml, v2=1.0 ml, and fw=0.4. The distribution coefficients Kbl/w were calculated by means of the equations (2) and (4).
# [3] = Distribution of lidocaine, cubic phase/water, simultaneous addition of all the water solution; format: physicochemical; details: for [X]w: 24 h; for [X]w / Kbl/w: simultaneous addition
# Method: wherein [X]lipid/[X]water is the concentration of a substance X in the lipid and the water portion of the system, respectively. In order to be able to determine Kbl/w several methods can be applied. […] Kbl/w ={[…] which [X]w is the concentration of X in the water phase at equilibrium. […] Then 0.5 ml of the respective buffer solution was added to the vials.
# [4] = Distribution of lidocaine, cubic phase/water, water solution added after the cubic phase has been formed; format: physicochemical; details: for [X]w: cubic phase formed 24 h at 37° C., then further 24 h
# [5] = citrate buffer pH 3.4, system I, [X]0 0.28 mg/ml
# [6] = citrate buffer pH 3.4, system II, [X]0 1.5 mg/ml
# [7] = citrate buffer pH 3.4, system III, [X]0 3.0 mg/ml
# [8] = water, system I, [X]0 0.28 mg/ml
# [9] = water, system II, [X]0 1.5 mg/ml
# [10] = water, system III, [X]0 3.0 mg/ml
smiles,measurement,setting,value
[Cl-].[Na+] [NaCl],[X]w,[1]; [X]0 0.033 mol/liter,0.036 mol/L
same,Kbl/w,[1]; [X]0 0.033 mol/liter,−0.25
same,[X]w,[1]; [X]0 0.067 mol/liter,0.071 mol/L
same,Kbl/w,[1]; [X]0 0.067 mol/liter,−0.17
same,[X]w,[1]; [X]0 0.100 mol/liter,0.106 mol/L
same,Kbl/w,[1]; [X]0 0.100 mol/liter,−0.17
Cc1ncsc1CCCl [Clomethiazole],"Kbl/w, eq. (2)",[2]; [5],28.4
same,"[X]w, concentration in the water phase at equilibrium",[2]; [5],0.014 mg/mL
same,"citrate, [X]Q, concentration in the cubic phase",[2]; [5],0.243 mg/mL
same,"Kbl/w, eq. (4)",[2]; [5],28.2
same,"Kbl/w, eq. (2)",[2]; [6],32.0
same,"[X]w, concentration in the water phase at equilibrium",[2]; [6],0.067 mg/mL
same,"citrate, [X]Q, concentration in the cubic phase",[2]; [6],1.188 mg/mL
same,"Kbl/w, eq. (4)",[2]; [6],28.9
same,"Kbl/w, eq. (2)",[2]; [7],31.5
same,"[X]w, concentration in the water phase at equilibrium",[2]; [7],0.136 mg/mL
same,"citrate, [X]Q, concentration in the cubic phase",[2]; [7],2.366 mg/mL
same,"Kbl/w, eq. (4)",[2]; [7],28.3
same,"Kbl/w, eq. (2)",[2]; [8],57.0
same,"[X]Q, concentration in the cubic phase",[2]; [8],0.243 mg/mL
same,"[X]w, concentration in the water phase at equilibrium",[2]; [8],0.0072 mg/mL
same,"kbl/w, eq. (4)",[2]; [8],55.6
same,"Kbl/w, eq. (2)",[2]; [9],57.9
same,"[X]Q, concentration in the cubic phase",[2]; [9],1.286 mg/mL
same,"[X]w, concentration in the water phase at equilibrium",[2]; [9],0.038 mg/mL
same,"kbl/w, eq. (4)",[2]; [9],55.7
same,"Kbl/w, eq. (2)",[2]; [10],57.9
same,"[X]Q, concentration in the cubic phase",[2]; [10],2.463 mg/mL
same,"[X]w, concentration in the water phase at equilibrium",[2]; [10],0.076 mg/mL
same,"kbl/w, eq. (4)",[2]; [10],53.3
CCN(CC)CC(=O)Nc1c(C)cccc1C [Lidocaine],Kbl/w(charged),"[3]; charged form, from pH 4",0.7
same,[X]w,"[3]; pH 4, [X]0 1.00 mg/ml",0.68 mg/mL
same,Kbl/w,"[3]; pH 4, equation 2, 24 h",0.7
same,[X]w,"[3]; pH 7, [X]0 1.00 mg/ml",0.21 mg/mL
same,Kbl/w,"[3]; pH 7, equation 2, 24 h",8.9
same,[X]w,"[3]; pH 10, [X]0 1.00 mg/ml",0.073 mg/mL
same,Kbl/w,"[3]; pH 10, equation 2, 24 h",31.2
same,Kbl/w(uncharged),"[3]; uncharged form, from pH 10",31.2
same,[X]w,"[4]; pH 4, [X]0 1.00 mg/ml",0.66 mg/mL
same,Kbl/w,"[4]; pH 4, equation 2, solution added after cubic phase formed",0.8
same,[X]w,"[4]; pH 7, [X]0 1.00 mg/ml",0.22 mg/mL
same,Kbl/w,"[4]; pH 7, equation 2, solution added after cubic phase formed",8.4
same,[X]w,"[4]; pH 10, [X]0 1.00 mg/ml",0.073 mg/mL
same,Kbl/w,"[4]; pH 10, equation 2, solution added after cubic phase formed",31.2
